Assay results reported in US9598720B2, “Monomeric and polymeric linkers useful for conjugating biological molecules and other substances” (DAKO Denmark A/S, priority 2005, dated 2017).
“Also recorded” adds a separate entry of the source.

System: repetitive DNA sequence in the centromere of the human chromosome 17
Assay: FISH on metaphases with fluorescein labeled PNAs, green signal compared with a red fluorescent PNA
Conditions: visual and Leica QFISH Measure Intensity
Description: The PNA sequence was directed at a repetitive DNA sequence in the centromere of the human chromosome 17, allowing the PNAs to be compared by FISH on metaphases. To erase specimen variation, each of the PNAs was mixed with a red fluorescent PNA directed at the same centromere region on chromosome 17, and the intensity of the red and green signals compared visually and quantified by the “Measure Intensity” function in the Leica QFISH program.

Substance: ((FlU-L60)2-Lys-L60)2-LyS-L30-AACGGGATAACTGCACCT-NH2 (all peptide nucleic acid (PNA); PNA with Lys(Flu) fluorescein and L30/L90 linkers at the termini, C-terminal amide, further chemistry not fully specified) [Linker derivative 19]
- intensity of the green signal: more intense signals

Substance: Ac-Lys(Flu)-L30-AACGGGATAACTGCACCT-L30-Lys(Flu)-L90-Lys(Flu)-L90-Lys(Flu)-NH2 (all peptide nucleic acid (PNA); PNA with Lys(Flu) fluorescein and L30/L90 linkers at the termini, C-terminal amide, further chemistry not fully specified) [Linker derivative 15]
- intensity of the green signal: more intense signals

Substance: H-Lys(Flu)-L30-AACGGGATAACTGCACCT-L30-Lys(Flu)-L90-Lys(Flu)-L90-Lys(Flu)-NH2 (all peptide nucleic acid (PNA); PNA with Lys(Flu) fluorescein and L30/L90 linkers at the termini, C-terminal amide, further chemistry not fully specified) [Linker derivative 16]
- intensity of the green signal: more intense signals; also recorded: most intense
